Here are results for 35 compounds from patent publication US20070213346A1, “Substituted 4-Alkyl-And 4-Alkanoyl-Piperidine Derivatives And Their Use As Neurokinin Antagonists” (priority 2004, published 2007).

One test has as its target NK1 (Homo sapiens, UniProt P25103). As to the kind of experiment: Signal transduction (ST), intracellular Ca++ FLIPR, NK1. Format: cell-based. The settings on record: antagonist, Ca++ transient peak, read-out: NK1 pIC50 (converted). How it is done:
(§1) This test evaluates in vitro functional NK1 antagonistic activity. For the measurements of intracellular Ca^++ concentrations the cells were grown on 96-well (black wall/transparent bottom) plates from Costar for 2 days until they reached confluence. The cells were loaded with 2 μM Fluo3 in DMEM containing 0.1% BSA and 2.5 mM probenecid for 1 h at 37° C. They were washed 3× with a Krebs buffer (140 mM NaCl, 1 mM MgCl2x6H2O, 5 mM KCl, 10 mM glucose, 5 mM HEPES; 1.25 mM CaCl2; pH 7.4) containing 2.5 mM probenecid and 0.1% BSA (Ca^++-buffer). The cells were preincubated with a concentration range of antagonists for 20 min at RT and Ca^++-signals after addition of the agonists were measured in a Fluorescence Image Plate Reader (FLIPR from Molecular Devices, Crawley, England). The peak of the Ca^++-transient was considered as the relevant signal and the mean values of corresponding wells were analysed as described below.
The sigmoidal dose response curves were analysed by computerised curve-fitting, using the GraphPad program. The EC50-value of a compound is the effective dose showing 50% of maximal effect. For mean curves the response to the agonist with the highest potency was normalised to 100%. For antagonist responses the IC50-value was calculated using non-linear regression. […]

The target in the next test is T1, NK3 (Homo sapiens, UniProt P29371).
T1 sequence (P29371 1-465): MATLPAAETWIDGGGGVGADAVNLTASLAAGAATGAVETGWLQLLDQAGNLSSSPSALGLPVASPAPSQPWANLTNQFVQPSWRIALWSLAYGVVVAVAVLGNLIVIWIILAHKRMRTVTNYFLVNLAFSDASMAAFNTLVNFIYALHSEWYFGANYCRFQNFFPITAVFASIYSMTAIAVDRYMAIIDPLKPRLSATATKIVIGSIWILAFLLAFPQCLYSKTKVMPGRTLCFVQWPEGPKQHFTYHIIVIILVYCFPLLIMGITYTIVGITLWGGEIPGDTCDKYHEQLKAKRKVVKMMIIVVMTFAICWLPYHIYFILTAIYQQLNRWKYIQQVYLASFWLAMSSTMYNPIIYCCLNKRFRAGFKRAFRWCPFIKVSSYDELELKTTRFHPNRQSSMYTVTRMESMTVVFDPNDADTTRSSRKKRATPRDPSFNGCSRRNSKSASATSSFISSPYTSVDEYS
The experiment in a line: Signal transduction (ST), intracellular Ca++ FLIPR, NK3. The settings on record: antagonist, Ca++ transient peak, read-out: NK3 pIC50 (converted). Format: cell-based. The procedure:
[The source words this procedure for another target and reports this target under the same test.] as §1
The sigmoidal dose response curves were analysed by computerised curve-fitting, using the GraphPad program. The EC50-value of a compound is the effective dose showing 50% of maximal effect. For mean curves the response to the agonist with the highest potency was normalised to 100%. For antagonist responses the IC50-value was calculated using non-linear regression.
The last columns indicates—without being limited thereto—for which use the compounds might be most suitable. Of course, since for some neurokinin receptors no data was determined, it is obvious that these compounds might be attributed to another suitable use.

Chain of NK1 (P25103 whole entry): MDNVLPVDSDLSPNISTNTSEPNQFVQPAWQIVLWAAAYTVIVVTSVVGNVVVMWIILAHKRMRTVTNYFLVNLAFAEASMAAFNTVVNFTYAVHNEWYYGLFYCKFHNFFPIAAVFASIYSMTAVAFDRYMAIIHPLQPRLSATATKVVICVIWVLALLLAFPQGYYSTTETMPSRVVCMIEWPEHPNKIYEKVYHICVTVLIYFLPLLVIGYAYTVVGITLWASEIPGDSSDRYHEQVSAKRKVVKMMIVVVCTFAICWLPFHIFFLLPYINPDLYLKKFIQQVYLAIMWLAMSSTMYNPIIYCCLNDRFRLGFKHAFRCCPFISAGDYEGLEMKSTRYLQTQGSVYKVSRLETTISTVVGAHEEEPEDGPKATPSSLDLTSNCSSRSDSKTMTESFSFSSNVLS

Turning to `CC(C)(C)OC(=O)N1CCC(N2CCN(C(=O)CC3CCN(C(=O)c4cc(C(F)(F)F)cc(C(F)(F)F)c4)[C@@H](Cc4ccccc4)C3)CC2)C1` (mixture of isomers) [Compound 7], the IC50 was 174 nM on NK1 and over 10000 nM on NK3.

`O=C(CC1CCN(C(=O)c2cc(C(F)(F)F)cc(C(F)(F)F)c2)[C@@H](Cc2ccccc2)C1)N1CCN(C2CCN(C(=O)C3CCOC3)C2)CC1` (mixture of isomers) [Compound 73]: the results for the IC50 on NK1 and at NK3 were 41.7 nM and over 10000 nM, respectively.

In the case of `O=C(c1cc2ccccc2oc1=O)N1CCC(N2CCN(C[C@H]3CCN(C(=O)c4cc(C(F)(F)F)cc(C(F)(F)F)c4)[C@H](Cc4ccccc4)C3)CC2)CC1` (relative stereo) [Compound 50], the IC50 on NK1 is 91.2 nM.

As for `O=C(C1CCN(C(=O)c2cc(C(F)(F)F)cc(C(F)(F)F)c2)C(Cc2ccccc2)C1)N1CCN(C2CCN(Cc3ccccc3)CC2)CC1` (stereo not drawn) [Compound 3], the results for the IC50 on NK1 and at NK3 were 347 nM and over 10000 nM, respectively.

Regarding `O=C(C1CCN(C(=O)c2cc(C(F)(F)F)cc(C(F)(F)F)c2)C(Cc2ccccc2)C1)N1CCN(C2CCNCC2)CC1` (stereo not drawn) [Compound 4], the figures for the IC50 on NK1 and on NK3 were 251 nM and over 10000 nM, respectively.

Take `CC(C)(C)OC(=O)N1CCC(N2CCN(CC3CCN(C(=O)c4cc(C(F)(F)F)cc(C(F)(F)F)c4)C(Cc4ccccc4)C3)CC2)CC1` (stereo not drawn) [Compound 5]: the IC50 at NK1 is 209 nM; on NK3 it was over 10000 nM.

Turning to `O=C(CC1CCN(C(=O)c2cc(C(F)(F)F)cc(C(F)(F)F)c2)C(Cc2ccccc2)C1)N1CCN(C2CCNC2)CC1` (stereo not drawn) [Compound 8], the figures for the IC50 on NK1 and at NK3 were 302 nM and over 10000 nM, respectively.

For the compound `Cc1cc(C)cc(C(=O)N2CCC(N3CCN(CC4CCN(C(=O)c5cc(C(F)(F)F)cc(C(F)(F)F)c5)C(Cc5ccccc5)C4)CC3)CC2)c1` (stereo not drawn) [Compound 12], the IC50 on NK1 is 316 nM.

For `O=C(C1CCN(C(=O)c2cc(C(F)(F)F)cc(C(F)(F)F)c2)C(Cc2ccccc2)C1)N1CCN(C2CCN(S(=O)(=O)c3cccs3)C2)CC1` (stereo not drawn) [Compound 13], the IC50 on NK1 is 13.2 nM; at NK3 it was 2510 nM.

As to `O=C(c1ccc2ccccc2n1)N1CCC(N2CCN(CC3CCN(C(=O)c4cc(C(F)(F)F)cc(C(F)(F)F)c4)C(Cc4ccccc4)C3)CC2)CC1` (stereo not drawn) [Compound 16], at NK1, the IC50 is 138 nM.

For `Cn1cccc1C(=O)N1CCC(N2CCN(CC3CCN(C(=O)c4cc(C(F)(F)F)cc(C(F)(F)F)c4)C(Cc4ccccc4)C3)CC2)CC1` (stereo not drawn) [Compound 33], the IC50 on NK1 is 224 nM.

For the compound `Cn1cccc1C(=O)N1CCC(N2CCN(C[C@H]3CCN(C(=O)c4cc(C(F)(F)F)cc(C(F)(F)F)c4)[C@H](Cc4ccccc4)C3)CC2)CC1` [Compound 34], the IC50 on NK1 was 209 nM.

`Cc1cc(C(=O)N2CCC(N3CCN(C[C@H]4CCN(C(=O)c5cc(C(F)(F)F)cc(C(F)(F)F)c5)[C@H](Cc5ccccc5)C4)CC3)CC2)no1` [Compound 36]: on NK1, the IC50 is 46.8 nM.

In the case of `Cn1cc(C(=O)N2CCC(N3CCN(CC4CCN(C(=O)c5cc(C(F)(F)F)cc(C(F)(F)F)c5)C(Cc5ccccc5)C4)CC3)CC2)c2ccccc21` (stereo not drawn) [Compound 40], the IC50 on NK1 was 347 nM.

Take `Cc1cccc(C(=O)N2CCC(N3CCN(C[C@H]4CCN(C(=O)c5cc(C(F)(F)F)cc(C(F)(F)F)c5)[C@H](Cc5ccccc5)C4)CC3)CC2)c1` [Compound 41]: the IC50 at NK1 was 166 nM.

With `O=C(c1ccccc1O)N1CCC(N2CCN(CC3CCN(C(=O)c4cc(C(F)(F)F)cc(C(F)(F)F)c4)C(Cc4ccccc4)C3)CC2)CC1` (stereo not drawn) [Compound 43], the IC50 at NK1 was 123 nM.

Turning to `O=C(c1cccc(O)c1)N1CCC(N2CCN(CC3CCN(C(=O)c4cc(C(F)(F)F)cc(C(F)(F)F)c4)C(Cc4ccccc4)C3)CC2)CC1` (stereo not drawn) [Compound 44], the IC50 at NK1 was 87.1 nM.

With `O=C(c1ccccn1)N1CCC(N2CCN(C[C@H]3CCN(C(=O)c4cc(C(F)(F)F)cc(C(F)(F)F)c4)[C@H](Cc4ccccc4)C3)CC2)CC1` [Compound 47], on NK1, the IC50 is 204 nM.

For the compound `O=C(Cc1c[nH]cn1)N1CCC(N2CCN(CC3CCN(C(=O)c4cc(C(F)(F)F)cc(C(F)(F)F)c4)C(Cc4ccccc4)C3)CC2)CC1` (stereo not drawn) [Compound 51], the IC50 at NK1 is 120 nM.

For the compound `COc1cc(CC(=O)N2CCC(N3CCN(CC4CCN(C(=O)c5cc(C(F)(F)F)cc(C(F)(F)F)c5)C(Cc5ccccc5)C4)CC3)CC2)cc(OC)c1OC` (stereo not drawn) [Compound 53], on NK1, the IC50 was 85.1 nM.

Turning to `O=C(c1ccoc1)N1CCC(N2CCN(C(=O)[C@H]3CCN(C(=O)c4cc(C(F)(F)F)cc(C(F)(F)F)c4)[C@H](Cc4ccccc4)C3)CC2)CC1` [Compound 57], the IC50 at NK1 was 22.9 nM; at NK3, 2450 nM.

As for `Cc1nnsc1C(=O)N1CCC(N2CCN(C(=O)[C@H]3CCN(C(=O)c4cc(C(F)(F)F)cc(C(F)(F)F)c4)[C@H](Cc4ccccc4)C3)CC2)CC1` [Compound 58], the IC50 on NK1 is 8.71 nM; on NK3 it was over 10000 nM.

As to `O=C(c1ccccc1)N1CCC(N2CCN(C(=O)[C@H]3CCN(C(=O)c4cc(C(F)(F)F)cc(C(F)(F)F)c4)[C@H](Cc4ccccc4)C3)CC2)CC1` [Compound 59], the IC50 at NK1 is 10.7 nM; on NK3, 9550 nM.

With `O=C([C@H]1CCN(C(=O)c2cc(C(F)(F)F)cc(C(F)(F)F)c2)[C@H](Cc2ccccc2)C1)N1CCN(C2CCNC2)CC1` (stereo partly drawn) [Compound 66], the results for the IC50 at NK1 and at NK3 were 214 nM and 6760 nM, respectively.

Turning to `O=C([C@H]1CCN(C(=O)c2cc(C(F)(F)F)cc(C(F)(F)F)c2)[C@H](Cc2ccccc2)C1)N1CCN(C2CCN(Cc3ccccc3)C2)CC1` (stereo partly drawn) [Compound 67], the IC50 was 75.9 nM on NK1 and over 10000 nM at NK3.

In the case of `O=C(C1CC1)N1CCC(N2CCN(C(=O)[C@H]3CCN(C(=O)c4cc(C(F)(F)F)cc(C(F)(F)F)c4)[C@H](Cc4ccccc4)C3)CC2)C1` (stereo partly drawn) [Compound 68], the IC50 at NK1 is 13.2 nM; at NK3 it was 6610 nM.

In the case of `O=C(C1CCOC1)N1CCC(N2CCN(C(=O)[C@H]3CCN(C(=O)c4cc(C(F)(F)F)cc(C(F)(F)F)c4)[C@H](Cc4ccccc4)C3)CC2)C1` (stereo partly drawn) [Compound 69], the IC50 at NK1 was 39.8 nM; at NK3 it was 6030 nM.

For `O=C(c1ccoc1)N1CCC(N2CCN(C(=O)[C@H]3CCN(C(=O)c4cc(C(F)(F)F)cc(C(F)(F)F)c4)[C@H](Cc4ccccc4)C3)CC2)C1` (stereo partly drawn) [Compound 70], the figures for the IC50 at NK1 and on NK3 were 25.7 nM and over 10000 nM, respectively.

For `O=C(c1ccccc1Cl)N1CCC(N2CCN(C(=O)[C@H]3CCN(C(=O)c4cc(C(F)(F)F)cc(C(F)(F)F)c4)[C@H](Cc4ccccc4)C3)CC2)C1` (stereo partly drawn) [Compound 72], the IC50 at NK1 is 31.6 nM; at NK3, over 10000 nM.

On to `COC1(CN2CCN(C3CCNC3)CC2)CCN(C(=O)c2cc(C(F)(F)F)cc(C(F)(F)F)c2)C(Cc2ccccc2)C1` (stereo not drawn) [Compound 81], for which the IC50 at NK1 was 200 nM; on NK3, over 10000 nM.

For the compound `COC1(CN2CCN(C3CCN(C(=O)c4ccoc4)C3)CC2)CCN(C(=O)c2cc(C(F)(F)F)cc(C(F)(F)F)c2)C(Cc2ccccc2)C1` (stereo not drawn) [Compound 85], the results for the IC50 on NK1 and at NK3 were 64.6 nM and over 10000 nM, respectively.

`COC1(CN2CCN(C3CCN(C(=O)c4snnc4C)C3)CC2)CCN(C(=O)c2cc(C(F)(F)F)cc(C(F)(F)F)c2)C(Cc2ccccc2)C1` (stereo not drawn) [Compound 86]: the IC50 was 67.6 nM at NK1 and 10200 nM at NK3.

With `COC1(CN2CCN(C3CCN(C(=O)c4ccccc4)C3)CC2)CCN(C(=O)c2cc(C(F)(F)F)cc(C(F)(F)F)c2)C(Cc2ccccc2)C1` (stereo not drawn) [Compound 87], the IC50 on NK1 is 115 nM; at NK3, over 10000 nM.

Take `COC1(CN2CCN(C3CCN(C(=O)c4cccnc4)C3)CC2)CCN(C(=O)c2cc(C(F)(F)F)cc(C(F)(F)F)c2)C(Cc2ccccc2)C1` (stereo not drawn) [Compound 88]: the values for the IC50 on NK1 and at NK3 were 61.7 nM and over 10000 nM, respectively.

In the case of `COC1(CN2CCN(C3CCN(S(=O)(=O)c4c(C)noc4C)C3)CC2)CCN(C(=O)c2cc(C(F)(F)F)cc(C(F)(F)F)c2)C(Cc2ccccc2)C1` (stereo not drawn) [Compound 89], the IC50 is 60.3 nM at NK1 and 3550 nM on NK3.
